pKi: −log10 of the molar value.
biological target: human RIP1 kinase domain (2-375) (Homo sapiens (Human), UniProt Q13546); assay: RIP1 kinase inhibition assay (biochemical, Transcreener ADP assay); settings: tight-binding apparent inhibition constant (Ki app, Morrison equation); 50 nM enzyme, 50 uM ATP, 2 hours incubation, fluorescence polarization; read-out: RIP1 Ki
Method: Example 45: RIP1 Kinase Inhibition Assays (Biochemical Assay)
The compounds of the present invention were tested for their capacity to inhibit RIP1K activity as described below.
The ability of the receptor interacting protein kinase (RIPK1) to catalyze the hydrolysis of adenosine-5′-triphosphate (ATP) is monitored using the Transcreener ADP (adenosine-5′-diphosphate) assay (BellBrook Labs). Purified human RIP1 kinase domain (2-375) (50 nM) derived from a baculovirus-infected insect cell expression system is incubated with test compounds for 2 hours in 50 mM Hepes buffer (pH 7.5) containing 30 mM MgCl2, 1 mM dithiothreitol, 50 uM ATP, 0.002% Brij-35, and 0.5% dimethyl sulfoxide (DMSO). Reactions are quenched by the addition of 1× Bell Brooks Stop buffer B (20 mM Hepes (ph 7.5), 40 mM ethylenediaminetetraacetic acid and 0.02% Brij-35) containing an additional 12 mM EDTA and 55 ug/mL ADP2 antibody and 4 nM ADP-AlexaFluor® 633 tracer. The tracer bound to the antibody is displaced by the ADP generated during the RIP1K reaction, which causes a decrease in fluorescence polarization that is measured by laser excitation at 633 nm with a FP microplate reader M1000. Fractional activity was plotted against test article concentration. Using Genedata Screener software (Genedata; Basel, Switzerland), the data were fit to the tight-binding apparent inhibition constant (Ki^app) Morrison equation [Williams, J. W. and Morrison, J. F. (1979) The kinetics of reversible tight-binding inhibition. Methods Enzymol 63: 437-67]. The following equation was used to calculate fractional activity and Ki^app: […]
where [E]T and [I]T are the total concentrations of active enzyme and test article, respectively. […]

Sequence of human RIP1 kinase domain (2-375) (Q13546 2-375): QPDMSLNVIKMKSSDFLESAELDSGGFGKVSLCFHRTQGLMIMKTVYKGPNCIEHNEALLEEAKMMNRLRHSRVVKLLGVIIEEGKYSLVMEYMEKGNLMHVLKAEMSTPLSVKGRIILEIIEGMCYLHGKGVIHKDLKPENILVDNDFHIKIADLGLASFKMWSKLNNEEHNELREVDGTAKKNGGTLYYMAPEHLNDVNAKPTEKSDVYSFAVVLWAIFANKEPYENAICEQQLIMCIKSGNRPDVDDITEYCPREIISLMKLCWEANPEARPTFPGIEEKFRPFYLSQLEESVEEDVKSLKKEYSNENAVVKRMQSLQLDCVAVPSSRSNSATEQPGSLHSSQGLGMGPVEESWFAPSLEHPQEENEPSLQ

Compound | pKi
O=C(N[C@H]1CCc2cc(F)cc(F)c2NC1=O)c1nc2n(n1)C(c1ccccc1)CC2(F)F (stereo partly drawn) [Example #24, 7,7-difluoro-5-phenyl-N-[(3S)-7,9-difluoro-2-oxo-1,3,4,5-tetrahydro-1-benzazepin-3-yl]-5,6-dihydropyrrolo[1,2-b][1,2,4]triazole-2-carboxamide] | 7.66
CN1C(=O)[C@@H](NC(=O)c2nc3n(n2)C(c2ccccc2)CC3(F)F)COc2ccccc21 (stereo partly drawn) [Example #25, 7,7-difluoro-5-phenyl-N-[(3S)-5-methyl-4-oxo-2,3-dihydro-1,5-benzoxazepin-3-yl]-5,6-dihydropyrrolo[1,2-b][1,2,4]triazole-2-carboxamide] | 7.48
CN1C(=O)[C@@H](NC(=O)c2nc3n(n2)C(c2ccccc2)CC3F)CCn2nccc21 (stereo partly drawn) [Example #26, 7-fluoro-5-phenyl-N-[(6S)-4-methyl-5-oxo-7,8-dihydro-6H-pyrazolo[1,5-a][1,3]diazepin-6-yl]-6,7-dihydro-5H-pyrrolo[1,2-b][1,2,4]triazole-2-carboxamide] | 7.31
O=C(N[C@H]1CCc2cc(F)cc(F)c2NC1=O)c1nc2n(n1)C(c1ccccc1)CC2F (stereo partly drawn) [Example #27, 7-fluoro-5-phenyl-N-[(3S)-7,9-difluoro-2-oxo-1,3,4,5-tetrahydro-1-benzazepin-3-yl]-6,7-dihydro-5H-pyrrolo[1,2-b][1,2,4]triazole-2-carboxamide] | 7.85
CN1C(=O)[C@@H](NC(=O)c2nc3n(n2)C(c2ccccc2)CC3F)COc2ccccc21 (stereo partly drawn) [Example #28, 7-fluoro-5-phenyl-N-[(3S)-5-methyl-4-oxo-2,3-dihydro-1,5-benzoxazepin-3-yl]-6,7-dihydro-5H-pyrrolo[1,2-b][1,2,4]triazole-2-carboxamide] | 7.92
